# Test results from patent publication US12648939B2, “Compounds and methods for treating spasticity” (Lexicon Pharmaceuticals, Inc., priority 2022, dated 2026).
# Key:
# [1] = tested on: rat model of spasticity induced by complete spinal cord transection; experiment: Rate-dependent depression (RDD) of the H-reflex in SCI rats; format: in vivo; conditions: single P.O. 4.5 mg/kg
# Experimental: (§1) The efficacy of Compound 1 was measured in a rat model of spasticity induced by complete spinal cord transection. To induce muscle spasticity, a model of complete spinal cord transection cord at the eighth thoracic (T8) vertebral level was used. Five weeks after the Spinal Cord Injury (SCI), the rats were orally (P.O.) treated with Compound 1 (3, 10, or 30 mg/kg), Baclofen (4.5 mg/kg). Tizanidine (3 mg/kg) or vehicles alone (0.9% NaCl, Compound 1 vehicle), and the degree of spasticity response was measured using the rate-dependent depression (RDD) of the Hoffmann's reflex (H-reflex) and spasms induction.
# (§2) Materials and Methods. […] One hundred and fifty-one SCI rats were maintained up to the end of the 5th post-injury week. One hundred and forty rats were submitted to P.O. administration of the test compounds and EMG analysis.
# (§3) The rat was firmly restrained to immobilize the head. In an upright position, the gavage needle was passed along the side of the mouth. Following the roof of the mouth, the needle was advanced into the esophagus and toward the stomach. After the needle is passed to the correct length, the compound was slowly injected. The rats were randomly assigned to one of the test groups:
# (§4) Electroneuromyographical recordings were performed in the right hind limbs before and 1, 2, 3, 4, 5 and 6 hours after P.O. administration.
# (§5) Electromyographical (EMG) signals were amplified (100×) and bandpass filtered (300 Hz to 5 kHz; A-M Systems Amplifier. Everett, Washington; model 1700) before sampling at 13.5 kHz (Digidata 1440A, Molecular Devices). The tibial nerve was stimulated by using square pulses with increasing stimulus intensities (0.2 mA increments starting from 0.2 mA, 0.2 Hz, 0.2 ms; A-M systems stimulator, Model 2100) to obtain recruitment curves.
# RDD of the H-reflex: To induce sedation, intraperitoneal injection of ketamine (100 mg/kg; Imalgen®) was used to suppress voluntary movements and increase muscle tone. Rats thorax and hindlimbs were secured on a heating pad with adhesive tape. The following series of measurements were repeated throughout the experiment: • 1. Hmax and Mmax determination: the tibial nerve was stimulated for 0.2 ms at 0.2 Hz with increasing current intensities (1-6 mA in 0.1 mA increments) until Mmax was stabilized. • 2. RDD measurement: the intensity necessary to obtain a maximal H-reflex was used for trains of 13 stimulations at 0.2, 1, 2 and 5 Hz with 2 min intervals between each train of stimulations. A whole series of measurements lasted about 15 minutes. • 3. Determination of the level of RDD: at the different frequencies, responses to the first three stimulations necessary for the depression to occur were discarded, and all the responses were expressed as percentages relative to the mean response at 0.2 Hz in the same series of measurements.
# (§6) Data analysis: H-reflex RDDs and areas under the curves (AUC) were determined as a measurement of spasticity and analyzed at each time point and for each frequency with Mann-Whitney test or with Kruskal Wallis one-way analysis of variance (ANOVA) test, followed by Dunn's multiple comparisons test. P<0.05 was considered significant. Significant differences were marked with asterisks (*) according to their respective P-values: values were expressed as the mean value±standard error of the mean (SEM) in all graphs. All statistical analyses were performed using GraphPad Prism 7 (San Diego, California, USA).
# Modulation of the RDD of the H-reflex. The Hoffmann reflex was used to assess primary (type 1a) afferents-mediated motoneuronal excitability in rats suffering from spasticity. Electromyograms typically show two responses: an initial M wave (FIG. 6B) resulting from the direct activation of motor axons (FIG. 6A-1), and a delayed H wave (FIG. 6B) resulting from the monosynaptic activation of motoneurons by the afferents (FIG. 6A-2). […]
# [2] = tested on: rat model of spasticity induced by complete spinal cord transection; experiment: Muscle spasms evoked by tibial nerve stimulation in chronic SCI rats; format: in vivo; conditions: single P.O. 4.5 mg/kg
# Experimental: as §1, §2, §3, §4, §5
# Muscles spasms: In awake chronic SCI rats, muscle spasms were evoked with stimulation of the tibial nerve while performing electromyographic (EMG) recordings from the flexor digitorum brevis (FDB) muscle. Spastic spinal rats were handled nine days before the experiment and progressively habituated to be individually constrained in a plexiglass tube and to immobilization of their paralyzed hindlimbs with tape. • 1. Hmax and Mmax determination: the tibial nerve was stimulated for 0.2 ms at 0.2 Hz with increasing current intensities (1-6 mA in 0.2 mA increments) until Mmax was stabilized. • 2. A supramaximal single-pulse stimulation to elicit muscle spasms was fixed throughout the experiment (2 or 3 times the threshold intensity for M-wave) and evoked 5 times, with 60 s interstimulus intervals. EMG were rectified and averaged over 2000 ms interval post-stimulus to quantify spasms (Clamplit 8.0, Axon Instruments).
# as §6
# Modulation of Muscle Spasms. When the tibial nerve was stimulated in acutely (1 week after injury) injured rats, little reflexes were evoked in the FDB muscle (FIG. 8A), regardless of the stimulation intensity. In contrast, stimulation of the tibial nerve in chronic (5 weeks after injury) SCI rats produced more (P<0.0001; Mann-Whitney test; FIG. 8C) long-lasting muscle contractions (FIG. 8B). This effect is a reliable correlate of the development of spasticity. In spastic rats, spasms were induced through the FDB muscle after electrical stimulation of the tibial nerve. […]
smiles,measurement,setting,value
"NCC(CC(=O)O)c1ccc(Cl)cc1 (stereo not drawn) [Baclofen, reference compound]","maximum effect, time (H-reflex RDD)",[1],5 h
same,onset of action (H-reflex RDD),[1],1 h
same,mean relative amplitudes of the H-reflex (RDD),[1]; SCI rats 5 weeks after injury,significantly reduced
same,"maximum effect, time (muscle spasms)",[2],2 h
same,muscle spasms (AUC),[2],reduced
same,onset of action (muscle spasms),[2],1 h
